# Molecular target: CDK2/Cyclin E1 (Homo sapiens, UniProt P24941)
# Test: CDK2/Cyclin E1 Caliper LabChip EZ Reader mobility shift assay
# Format: biochemical
# Design: purchased Eurofins 14-475
# Conditions: read-out: Caliper Assay (CDK2/CCNE1): IC50
# Procedure, shortened: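 Mobility-shift kinase assay: compound titrations preincubated 30 min with enzyme and ATP, reaction started with 5-FAM-QSPKKG-CONH2 peptide. Final 2.5 nM CDK2/Cyclin E1, 100 μM ATP, 1.5 μM peptide, HEPES pH 7.5; stopped with EDTA after 100 min. IC50 from four-parameter fit of normalized conversion ratio.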
row,Structure (SMILES),IC50
1,"CNC(=O)[C@H](COCc1ccccc1)NC(=O)[C@@H]1CN(C(=O)c2cnn(Cc3ccccc3)c2)CC12CN(C(=O)C1(C(F)(F)F)CC1)C2 [I-113A, (S)-6-(1-benzyl-1H-pyrazole-4-carbonyl)-N—((S)-3-(benzyloxy)-1-(methylamino)-1-oxopropan-2-yl)-2-(1-(trifluoromethyl)cyclopropane-1-carbonyl)-2,6-diazaspiro[3.4]octane-8-carboxamide]",1000 to 10000 nM
2,CNC(=O)[C@@H](NC(=O)[C@H]1CN(C(=O)c2scnc2C(F)(F)F)CC12CN(C(=O)[C@H]1CC1(C)C)C2)[C@@H](C)OCC1CCCCC1 [I-163B],> 10000 nM
3,CC1(C)C[C@@H]1C(=O)N1CC2(CN(C(=O)c3cncs3)C[C@H]2C(=O)NC(c2cccc(C3CCCCC3)n2)C2COCCO2)C1 (some centres unmarked) [I-496],10 to 100 nM
4,C[C@@H](OCC1(C(F)(F)F)CC1)[C@H](NC(=O)[C@@H]1CN(C(=O)c2cncs2)CC12CN(C(=O)[C@H]1CC1(C)C)C2)C(=O)N1CCCCC1 [I-285],100 to 1000 nM
5,CNC(=O)[C@@H](NC(=O)[C@@H]1CN(C(=O)c2cnn(Cc3ccccc3)c2)CC12CN(C(=O)C(C)C1CC1)C2)[C@@H](C)OCc1ccccc1 (some centres unmarked) [I-277],1000 to 10000 nM
6,COC[C@@H]1CCCN(C(=O)[C@@H](NC(=O)C2CN(C(=O)c3cncs3)CC23CN(C(=O)[C@H]2CC2(C)C)C3)[C@@H](C)OCC2CCCCC2)C1 (some centres unmarked) [I-195],≤ 10 nM
7,C[C@@H](OCc1ccc(C(F)(F)F)cc1)[C@H](NC(=O)[C@@H]1CN(C(=O)c2cncs2)CC12CN(C(=O)[C@H]1CC1(C)C)C2)C(=O)N1C2CCC1COC2 [I-470],≤ 10 nM
8,C[C@@H](OCC1CCCCC1)[C@H](NC(=O)[C@@H]1CN(C(=O)c2cnn(Cc3ccccc3)c2)CC12CN(C(=O)[C@H]1CC1(C)C)C2)C(=O)N1CCC[C@H]1CN [I-220],10 to 100 nM
9,CNC(=O)[C@@H](NC(=O)[C@@H]1CN(C(=O)c2cnc(COC(C)(C)C)s2)CC12CN(C(=O)[C@H]1CC1(C)C)C2)[C@@H](C)OCC1CCCCC1 [I-175A],≤ 10 nM
10,CC1(C)C[C@@H]1C(=O)N1CC2(CN(C(=O)c3cnn(Cc4ccccc4)c3)C[C@H]2C(=O)NC2CCCN(C(=O)c3ccccc3)C2)C1 (some centres unmarked) [I-59A],> 10000 nM
11,Cc1nc(C)c(C(=O)N2C[C@@H](C(=O)NC(c3cccc(C4CCOCC4)n3)C(C)(C)O)C3(C2)CN(C(=O)[C@H]2CC2(C)C)C3)s1 (some centres unmarked) [I-437],> 10000 nM
12,C[C@@H](OCC1CCCCC1)[C@H](NC(=O)[C@@H]1CN(C(=O)c2cnn(Cc3ccccc3)c2)CC12CN(C(=O)[C@H]1CC1(C)C)C2)C(=O)NCCC(=O)OC(C)(C)C [I-478],≤ 10 nM
13,CNC(=O)[C@@H](NC(=O)[C@@H]1CN(C(=O)c2nccs2)CC12CN(C(=O)[C@H]1CC1(C)C)C2)[C@@H](C)OCC1CCCCC1 [I-169],> 10000 nM
14,CNC(=O)[C@@H](NC(=O)[C@@H]1CN(C(=O)c2scnc2C)CC12CN(C(=O)[C@H]1CC1(C)C)C2)[C@@H](C)OCC1CCCCC1 [I-160A],10 to 100 nM
15,CC1(C)C[C@@H]1C(=O)N1CC2(CN(C(=O)c3cnn(Cc4ccccc4)c3)C[C@@H]2C(=O)Nc2ccc(-c3ccccc3)cc2)C1 [I-81B],1000 to 10000 nM
16,C[C@@H](OCC1CCCCC1)[C@@H](CO)NC(=O)[C@@H]1CN(C(=O)c2cnn(Cc3ccccc3)c2)CC12CN(C(=O)[C@H]1CC1(C)C)C2 [I-135A],10 to 100 nM
17,C[C@@H](OCC1CCCCC1)[C@H](NC(=O)C1CN(C(=O)C2CCC(=O)N(C)C2)CC12CN(C(=O)[C@H]1CC1(C)C)C2)C(=O)N1CCCCC1 (some centres unmarked) [I-242],1000 to 10000 nM
18,C[C@@H](OCc1ccccc1)[C@H](NC(=O)C1CN(C(=O)c2cnn(Cc3ccccc3)c2)CC12CN(C(=O)[C@H]1CC1(C)C)C2)C(=O)NCCO (some centres unmarked) [I-30],10 to 100 nM
19,CNC(=O)[C@@H](NC(=O)[C@@H]1CN(Cc2cnn(C)c2)CC12CN(C(=O)[C@H]1CC1(C)C)C2)[C@@H](C)OCc1ccccc1 [I-47A],> 10000 nM
20,Cc1noc([C@H](C)NC(=O)[C@H]2CN(C(=O)c3cnn(Cc4ccccc4)c3)CC23CN(C(=O)[C@H]2CC2(C)C)C3)n1 [I-158B],> 10000 nM
